In PMC7180572, “5-Alkylamino-N-phenylpyrazine-2-carboxamides: Design, Preparation, and Antimycobacterial Evaluation” (Molecules, 2020):
Values after ≈ are worked out from the molar mass of the structure shown. Read-outs that look alike come from different tables or passages of the source.

How the values were obtained:
[1] = tested on: Candida krusei ATCC 6258, CCM 8271; assay: Antifungal microdilution broth method (EUCAST); assay type: cell-based; conditions: Pichia kudriavzevii, read-out: MIC CK
[2] = tested on: Pseudomonas aeruginosa ATCC 27853, CCM 3955; assay: Antibacterial microdilution broth method (EUCAST); assay type: cell-based; conditions: read-out: MIC PA
[3] = tested on: Mycobacterium aurum DSM 43999 (ATCC 23366); assay: Microdilution broth, modified Microplate Alamar Blue Assay, whole cell growth inhibition; assay type: cell-based; conditions: Mycolicibacterium aurum, read-out: MIC Mycobacterium aurum
[4] = tested on: Aspergillus flavus CCM 8363; assay: Antifungal microdilution broth method (EUCAST); assay type: cell-based; conditions: read-out: MIC AFla
[5] = tested on: Enterococcus faecalis ATCC 29212, CCM 4224; assay: Antibacterial microdilution broth method (EUCAST); assay type: cell-based; conditions: read-out: MIC EF
[6] = tested on: HepG2 cells; assay: HepG2 cytotoxicity, CellTiter 96 (MTS) assay; assay type: cell-based, human; conditions: for IC50: Homo sapiens, HepG2, 24 h, read-out: HepG2 IC50; for SI, selectivity index: IC50 (HepG2)/MIC against Mtb H37Ra (in µM)
[7] = tested on: Staphylococcus aureus spp.aureus ATCC 29213, CCM 4223; assay: Antibacterial microdilution broth method (EUCAST); assay type: cell-based; conditions: read-out: MIC SA
[8] = tested on: Acinetobacter baumanii ATCC 19606, DSM 30007; assay: Antibacterial microdilution broth method (EUCAST); assay type: cell-based; conditions: Acinetobacter baumannii
[9] = tested on: Mycobacterium tuberculosis H37Ra ITM-M006710 (ATCC 9431); assay: Microdilution broth, modified Microplate Alamar Blue Assay, whole cell growth inhibition; assay type: cell-based; conditions: Mycobacterium tuberculosis; in vitro, Middlebrook 7H9 broth, resazurin; read-out: MIC Mtb H37Ra
[10] = tested on: Klebsiella pneumoniae ATCC 10031, CCM 4415; assay: Antibacterial microdilution broth method (EUCAST)
[11] = tested on: Candida albicans ATCC 24433, CCM 8320; assay: Antifungal microdilution broth method (EUCAST); assay type: cell-based; conditions: read-out: MIC CA
[12] = tested on: Absidia corymbifera CCM 8077 (Lichtheimia corymbifera); assay: Antifungal microdilution broth method (EUCAST); assay type: cell-based; conditions: read-out: MIC AC
[13] = tested on: Candida parapsilosis ATCC 22019, CCM 8260; assay: Antifungal microdilution broth method (EUCAST); assay type: cell-based; conditions: Lodderomyces parapsilosis, read-out: MIC CP
[14] = tested on: Candida tropicalis ATCC 750, CCM 8264; assay: Antifungal microdilution broth method (EUCAST); assay type: cell-based; conditions: read-out: MIC CT
[15] = tested on: Trichophyton interdigitale ATCC 9533, CCM 8377; assay: Antifungal microdilution broth method (EUCAST); assay type: cell-based; conditions: read-out: MIC TI
[16] = tested on: Aspergillus fumigatus ATCC 204305; assay: Antifungal microdilution broth method (EUCAST); assay type: cell-based; conditions: read-out: MIC AF
[17] = tested on: Escherichia coli ATCC 25922, CCM 3954; assay: Antibacterial microdilution broth method (EUCAST); assay type: cell-based; conditions: read-out: MIC EC
[18] = tested on: Staphylococcus aureus methicillin resistant ATCC 43300, CCM 4750; assay: microbe, parasite or virus in culture; assay type: cell-based; conditions: ATCC 43300 / CCM 4750 / MRSA, read-out: MIC MRSA
[19] = tested on: Staphylococcus epidermidis ATCC 12228, CCM 4418; assay: Antibacterial microdilution broth method (EUCAST); assay type: cell-based; conditions: read-out: MIC SE
[20] = tested on: Mycobacterium smegmatis DSM 43465 (ATCC 607); assay: Microdilution broth, modified Microplate Alamar Blue Assay, whole cell growth inhibition; assay type: cell-based; conditions: Mycolicibacterium smegmatis, read-out: MIC Mycobacterium smegmatis

| Structure (SMILES) | MIC ([1]; 24 h) [µM] | MIC ([1]; 48 h) [µM] | MIC ([2]; 72 h) [µM] | MIC ([2]; 120 h) [µM] | MIC [3] [µg/mL] | melting point [°C] | MIC ([4]; CCM8363, 24 h) [µM] | MIC ([4]; CCM8363, 48 h) [µM] | MIC ([5]; 24 h) [µM] | MIC ([5]; 48 h) [µM] | IC50 [6] [µM] | SI, selectivity index [6] | MIC ([7]; 24 h) [µM] | MIC ([7]; 48 h) [µM] | MIC ([8]; 24h) [µM] | MIC ([8]; 48h) [µM] | MIC [9] [µg/mL] | MIC KP ([10]; 24h) [µM] | MIC KP ([10]; 48h) [µM] | MIC ([11]; 24 h) [µM] | other results |
| --- | --- | --- | --- | --- | --- | --- | --- | --- | --- | --- | --- | --- | --- | --- | --- | --- | --- | --- | --- | --- | --- |
| CCCCCCNc1cnc(C(=O)Nc2ccc(O)cc2)cn1 [Compound 3d, 5-(Hexylamino)pyrazine-N-(4-hydroxyphenyl)-2-carboxamide] | > 500 | > 500 | > 500 | > 500 | ≥ 500 | 157.7 to 161.5 | > 500 | > 500 | > 500 | > 500 | 58.6 | 4.71 | > 500 | > 500 | > 500 | > 500 | 3.91 (≈ 12.4 µM) | > 500 | > 500 | > 500 | MIC ([11]; 48 h): > 500 µM; MIC ([12]; CCM8077, 24 h): > 500 µM; MIC ([12]; CCM8077, 48 h): > 500 µM; MIC ([13]; 24 h): > 500 µM; MIC ([13]; 48 h): > 500 µM; MIC ([14]; 24 h): > 500 µM; MIC ([14]; 48 h): > 500 µM; MIC ([15]; 72 h): > 500 µM; MIC ([15]; 120 h): > 500 µM; MIC ([16]; ATCC204305, 24 h): > 500 µM; MIC ([16]; ATCC204305, 48 h): > 500 µM; MIC ([17]; 24 h): > 500 µM; MIC ([17]; 48 h): > 500 µM; MIC ([18]; 24 h): > 500 µM; MIC ([18]; 48 h): > 500 µM; MIC ([19]; 24 h): > 500 µM; MIC ([19]; 48 h): > 500 µM; MIC [20]: 250 µg/mL (≈ 795 µM) |
| CCCCCCCNc1cnc(C(=O)Nc2ccc(O)cc2)cn1 [Compound 3e] | > 250 | > 250 | > 500 | > 500 | ≥ 500 | 151.4 to 155.4 | > 250 | > 250 | > 500 | > 500 | 44.8 | 3.76 | > 500 | > 500 | > 500 | > 500 | 3.91 (≈ 11.9 µM) | > 500 | > 500 | > 250 | MIC ([11]; 48 h): > 250 µM; MIC ([12]; CCM8077, 24 h): > 250 µM; MIC ([12]; CCM8077, 48 h): > 250 µM; MIC ([13]; 24 h): > 250 µM; MIC ([13]; 48 h): > 250 µM; MIC ([14]; 24 h): > 250 µM; MIC ([14]; 48 h): > 250 µM; MIC ([15]; 72 h): > 250 µM; MIC ([15]; 120 h): > 250 µM; MIC ([16]; ATCC204305, 24 h): > 250 µM; MIC ([16]; ATCC204305, 48 h): > 250 µM; MIC ([17]; 24 h): > 500 µM; MIC ([17]; 48 h): > 500 µM; MIC ([18]; 24 h): > 500 µM; MIC ([18]; 48 h): > 500 µM; MIC ([19]; 24 h): > 500 µM; MIC ([19]; 48 h): > 500 µM; MIC [20]: 31.2 µg/mL (≈ 95.2 µM) |
